Legend:
Type in all cases: cell-based, human
[1] = tested on: total cholesterol levels within the medium; experiment: Total cholesterol quantification in culture medium of iPSC-derived hepatocytes; conditions: 2 μg/mL, 24 hours; normalized with DMSO treated control
Description: B. Human iPSC-derived hepatocytes were treated with 2 μg/mL of DL-1 for 24 hours. Total cholesterol levels within the medium were determined and normalized with DMSO treated control. Data are shown as mean±SEM of six replicates (n=6); * ** P<0.001.
Cell Culture medium was harvested from human iPSC-derived hepatocytes (Day 20) before and after 24 hours of DL-1 (2 μg/mL) or vehicle treatment. Pre-drug and Post-drug medium were concentrated using Amico® Ultra 10K Centrifugal Filters (Sigma-Aldrich, #Z740171), and total cholesterol levels were determined using the colorimetric cholesterol assay kit (Sigma-Aldrich, #MAK043) following the manufactural instructions.

[2] = tested on: Albumin; experiment: Secreted albumin ELISA in iPSC-derived hepatocytes
Description: D. Human iPSC-derived hepatocytes were treated with DL-1 with concentrations ranging from 0.0325 to 12 or 48 μg/mL for 24 hours. Pre-drug and Post-drug medium were collected for analysis. Albumin and APOB levels were determined via ELISA assay. All secreted proteins were compared to non-treated cells. […] Data are shown as mean±SEM of four replicates (n=4); * p<0.01.
E. Human iPSC-derived hepatocytes were treated with 2 μg/mL of DL-1 from 8 to 48 hours. Albumin, APOPA, and APOB level in the culture medium were determined via ELISA. All secreted proteins were compared to non-treated cells. In FIG. 5, accumulated APOB in the medium from different time-point was measured and normalized to albumin level. In FIG. 6, APOA, APOB, and albumin in the medium at the indicated times were compared to control. […] Data are shown as mean±SEM of four replicates (n=4); *p<0.05, **p<0.01.
Human APOB level was determined via a commercial sandwich ELISA (3715-1H-6; Mabtech), and the signal was detected using the HRP-TMB system. The concentration of APOB was determined using a standard curve with four parameters logistic regression model. Human APOA level was determined via a commercial sandwich ELISA (3710-1H-6; Mabtech) following manufacture instruction. Human albumin levels in cell culture supernatants were measured by commercial ELISA (E88-129; Bethyl Laboratories) following manufactural instructions.

[3] = tested on: APOB mRNA; experiment: APOB mRNA level by real-time qPCR; conditions: 2 μg/mL, 24 hours
Description: G. Human iPSC-derived hepatocytes were treated with 2 μg/mL of DL-1 or equivalent concentration of DMSO for 24 hours. […] (A) APOB mRNA level was determined using real-time qPCR. (B) Intracellular APOB, LDLR, and HSP90 protein levels were determined via immunoblot. (C) Quantification of biological replicates of immunoblots on samples treated as in (B). Data are shown as mean±SEM of four replicates (n=4).
C. Human iPSC-derived hepatocytes (iPSC-Heps) were treated with 2 μg/mL of DL-1 or equivalent concentration of DMSO for 24 hours. In FIG. 7A, APOB mRNA level was determined using real-time qPCR. In FIG. 7B Intracellular APOB, LDLR, and HSP90 protein levels were determined via immunoblot; Quantification of biological replicates of immunoblots. Data are shown as mean±SD of four replicates (n=4). In FIG. 12A LDL uptake assay was performed by pre-treating cells with 2 μg/mL of DL-1, 20 μM of Atorvastatin, and equivalent concentration of DMSO for 24 hours followed by 4 hours of pHrodo-LDL exposure; LDL endocytosis was determined and quantified by fluorescence image; data are shown as mean±SD of triplicates (n=3). […]
Human iPSC-derived hepatocytes (Day 20) were treated with 2 μg/mL of DL-1 for 24 hours. […] Quantitative real-time PCR was performed on a BioRad CFX384 real-time PCR machine.

[4] = tested on: Hepatic neutral lipid; experiment: Neutral lipid staining (BODIPY 493/503) in iPSC-derived hepatocytes; conditions: 72 hours; DL-1 2 μg/mL, CP-346086 20 nM
Description: H. Human iPSC derived hepatocytes were treated with DL-1 (2 μg/mL) and MTTP inhibitor CP-346086 (20 nM) for 72 hours. […] (A) Hepatic neutral lipid was determined by staining with 2 μM of BODIPYTM 493/503 for 15 mins and fixed with 4% PFA for microscopy. Nuclei were stained blue by DAPI. Scale bar=100 μm. […] Data are shown as mean±SEM of ten replicates (n=10); ***p<0.001.
K3 iPSC-derived hepatocytes (Day 20) were treated with or without 2 μg/mL of DL-1 or 20 nM of CP-346086 (Sigma) for 72 hours with daily medium change. At the time-point of interest, cells were treated with 2 μM of BODIPY® 493/503 staining solution (ThermoFisher) and 5 μg/mL of Hoechst 33342 (ThermoFisher) in PBS at 37 degrees for 15 minutes. Cells were washed with sterile PBS three times and then fixed with 4% PFA. Fluorescence images were taken using Bio-rad Zoeυ Fluorescent Cell Imager (Bio-Rad) and KEYENCE BZ-X800E Fluorescence Microscope (KEYENCE). Integrated fluorescent intensity was normalized by total cell counts, which is determined by DAPI staining.

## Sc1nc(S)nc(Nc2ccc(Nc3ccccc3)cc2)n1 (racemic) [DL-1, 6-{[4-(phenylamino)phenyl]amino}-1,3,5-triazine-2,4-dithiol]
[1]
  total cholesterol level in culture medium: reduced total cholesterol level
[2]; 2 μg/mL, 8 to 48 hours
  albumin level in culture medium, time course: without affecting albumin and APOA level
[2]; 0.0325 to 12 or 48 μg/mL, 24 hours
  albumin level, dose-response: without affecting albumin
[3]
  APOB mRNA level: no impact on APOB mRNA and intracellular protein levels
[4]
  hepatic lipid accumulation (neutral lipid level): no impact on hepatic lipid accumulation

— patent US20230101743A1, “SUBSTITUTED TRIAZINE COMPOUNDS AND USES THEREOF” (MUSC FOUNDATION FOR RESEARCH DEVELOPMENT, priority 2020, published 2023)
